From PubChem BioAssay (NCI)
Where “and” joins values, the source holds several entries; their conditions need not be identical. Identical values can stand only once.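 Grown in 96-well plates, cells were treated for 48 hours with each compound at five concentrations. Insufficient inhibition: endpoint recorded as highest concentration tested. GI50: concentration for 50% inhibition of growth. TGI marks complete inhibition of growth.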

Tests used:
Test in all cases: growth of human tumour cells (NCI), 48 h
SF-295 CNS = test system: SF-295 CNS
HCT-15 colon = test system: HCT-15 colon
SK-MEL-5 melanoma = test system: SK-MEL-5 melanoma
SW-620 colon = test system: SW-620 colon
NCI-H226 lung = test system: NCI-H226 lung
MALME-3M melanoma = test system: MALME-3M melanoma
SR leukemia = test system: SR leukemia
NCI-H522 lung = test system: NCI-H522 lung
HT29 colon = test system: HT29 colon
SK-OV-3 ovarian = test system: SK-OV-3 ovarian

Compound | GI50 (SF-295 CNS) [µM] | TGI (SF-295 CNS) [µM] | GI50 (HCT-15 colon) [µM] | TGI (HCT-15 colon) [µM] | GI50 (SK-MEL-5 melanoma) [µM] | TGI (SK-MEL-5 melanoma) [µM] | GI50 (SW-620 colon) [µM] | TGI (SW-620 colon) [µM] | GI50 (NCI-H226 lung) [µM] | TGI (NCI-H226 lung) [µM] | GI50 (MALME-3M melanoma) [µM] | TGI (MALME-3M melanoma) [µM] | GI50 (SR leukemia) [µM] | TGI (SR leukemia) [µM] | GI50 (NCI-H522 lung) [µM] | TGI (NCI-H522 lung) [µM] | GI50 (HT29 colon) | TGI (HT29 colon) [µM] | GI50 (SK-OV-3 ovarian) [µM] | TGI (SK-OV-3 ovarian) [µM]
Oc1ccc2cc(Br)ccc2c1-c1c(O)ccc2cc(Br)ccc12 | 2.46 | 6.79 | 3.2 | 12.1 | 1.87 | 3.74 | 2.64 | 7.41 | 2.66 | 8.9 | 2.19 | 6.05 | 2.52 | 7.43 | 1.98 | 4.53 | 1.75 µM | 3.34 | 4.72 | 17.3
Cc1cc(N2CCCCC2)nc(N(CCCNc2ccnc3cc(Cl)ccc23)Cc2ccco2)n1 | 1.29 | 3.59 | 1.62 | 4.88 | 1.67 | 3.06 | 1.61 | 4.37 | 2.9 | 11.8 | 2.03 | 3.68 | 1.69 | 4.71 | 2.63 | 7.69 | 1.2 µM | 4.95 | 3.35 | 13.2
CC1=NN(c2ccccc2)C(=O)C1N=Nc1ccc([As](=O)(O)O)c(O)c1 (stereo not drawn) | – | > 100 | – | > 100 | – | > 100 | – | > 100 | – | > 100 | – | > 100 | – | > 100 | – | > 100 | – | > 100 | – | > 100
C[n+]1c(/C=C\c2ccc(Cl)cc2)ccc2ccccc21 | 13.8 | > 100 | 53.2 | > 100 | 5.56 | 18 | 4.1 | 63.4 | 72.1 | > 100 | 11.9 | 36.8 | 45.8 | > 100 | 12.4 | 89.4 | 19.4 µM | > 100 | 46.6 | > 100
COC(=O)Nc1nc2ccc(Oc3ccc(NC(=O)Nc4cccc(C(=O)O)c4)cc3)cc2[nH]1 | 5.61 | > 21.7 | 6.49 | > 25 | 3.24 | > 21 | 7.43 | > 25 | 5.2 | > 25 | 7.92 | > 25 | 2.41 | > 25 | 4 | > 19 | 7.35 µM | > 25 | 5.53 | 16.3
COc1ccc2nc(-c3cc(-c4cc(OC)c(OC)c(OC)c4)n[nH]3)[nH]c2c1 | 1.62 | 5.24 | 2.5 | 10.7 | 0.462 | 1.77 | 2.89 | 11.1 | 0.462 | 2.98 | 1.74 | 6.4 | 1.74 | 8.38 | 1.21 | 3.98 | 2.76 µM | 16.2 | 2.83 | 9.17
C=C1C(=O)O[C@@H]2C[C@@]3(C)CCC[C@H](C)C3=C[C@H]12 | – | 34.5 | – | 17.1 | – | 17.9 | – | 12.3 | – | 29.5 | – | 15.8 | – | 4.78 | – | 11.1 | – | 16.1 | – | 40.4
Cc1ccc(NC(=O)C(=O)C2C(=O)N(c3ccccc3)N=C2N)cc1C (stereo not drawn) | – | > 100 | – | > 100 | – | > 100 | – | > 100 | – | > 100 | – | > 100 | – | > 100 | – | > 100 | – | > 100 | – | > 100
COc1cc(O)c2c(O)c3c(c4c2c1[C@]1(C4)C(C)=CCCC1(C)C)[C@H](O)[C@@]1(O)CC(=O)C(C(N)=O)=C(O)[C@@]1(O)C3=O | – | 1.07 | – | 1.45 | – | 0.399 | – | 1.2 | – | 0.951 | – | 0.675 | – | 1.45 | – | 0.332 | – | 1.08 | – | 1.43
CCOC12OC3=C(CC1CC1=C(CCC1=O)O2)C(=O)CC3 (stereo not drawn) | – | > 100 | – | > 100 | – | > 100 | – | > 100 | – | > 100 | – | > 100 | – | > 100 | – | > 100 | – | > 100 | – | > 100
CCCN(CCC)C(=O)C1=Cc2ccc(-c3ccc(C(=O)N4CCCC4)cc3)cc2N=C(N)C1 | 4.92 | 24.5 | 4.8 | 23.1 | 2.91 | 10.9 | 7.1 | 31.8 | 12.1 | 62 | 8.32 | 23 | 4.21 | 18.3 | 4.68 | 18.8 | 4.28 µM | 28.6 | 18.2 | 87
O=C1NN(c2ccc(C(=O)O)cc2)C(=O)/C1=C\c1ccc([N+](=O)[O-])o1 | > 100 | > 100 | 20.4 | 45.4 | > 100 | > 100 | 20 | 47.3 | > 100 | > 100 | 20.7 | 41.2 | 32.9 | > 100 | 15.7 | 32.8 | 18.6 µM | 35.8 | > 100 | > 100
COc1ccc(N(CC(=O)NCCC[Te]c2ccccc2)C(=O)c2ccccc2)cc1 | 1.68 | 8.17 | 2.95 | 15 | 2.4 | 6.08 | 3.87 | 14.4 | 2.62 | 7.21 | 16.7 | 34.7 | 2.82 | – | 3.1 | 8.84 | 3.84 µM | > 100 | 2.55 | 6
Cc1cc(NS(=O)(=O)c2ccc(N=Nc3cc(N=Nc4ccc(S(=O)(=O)Nc5cc(C)nc(C)n5)cc4)c4c(NC(=O)C(Cl)Cl)cccc4c3OC(=O)C(Cl)Cl)cc2)nc(C)n1 (tested in a mixture with another compound) | – | 77.6 | – | 31.7 | – | 10.5 | – | 40.4 | – | 44.9 | – | 40.8 | – | 94.8 | – | 38.5 | – | 46 | – | > 100
COc1cc2c3c(n(CCCCOC(=O)C(F)(F)F)c(=O)c2cc1OC)-c1cc2c(cc1C3=O)OCO2 | > 41.7 | > 100 | > 100 | > 100 | > 100 | > 100 | > 100 | > 100 | 98.6 | > 100 | > 100 | > 100 | 0.589 | 13.4 | – | > 100 | > 100 µM | > 100 | > 100 | > 100
COc1ccc(CCN2C(=O)C=CC2=O)cc1OC | – | 33.5 | – | 3.83 | – | 31.5 | – | 5.65 | – | 13 | – | 29.8 | – | 6.7 | – | 3.17 | – | 13.7 | – | 33
Cn1cc(-c2nc(-c3c[nH]c4ncccc34)cs2)c2cc(F)ccc21 | 2.18 | 6.93 | 2.88 | > 45 | 2.6 | 11.5 | 2.67 | 9.73 | 4.63 | 25.9 | 2.73 | 13.4 | 2.44 | 7.8 | 2.7 | 9.89 | 2.1 µM | 4.53 | 3.9 | 32.3
Nc1nc(N)c(N=O)c(Nc2ccc(O)cc2)n1 | – | > 65.1 | – | > 100 | – | > 100 | – | > 100 | – | 96 | – | > 100 | – | 97.7 | – | > 56.6 | – | > 100 | – | 45.1
CC(=O)N1c2ccccc2C23CCN(C)CC4C(C)OCC(C4CC2=O)C13 (stereo not drawn) | – | > 100 | – | > 100 | – | > 100 | – | > 100 | – | > 100 | – | > 100 | – | > 100 | – | > 100 | – | > 100 | – | > 100
CCC[CH2][Sn]1([CH2]CCC)[O]C(=O)c2cc(I)cc(I)c2[O]1 | 1.91 | 3.53 | 1.28 | 2.93 | 1.54 | 2.88 | 0.367 | 1.57 | 1.75 | 3.29 | 1 | 2.23 | 0.279 | 1.7 | 0.143 | 0.323 | 2.03 µM | 4.21 | 2.09 | 4.65
Cc1[nH]c2ccccc2c1C1Cc2ccccc2N1C(=O)/C=C/C=C/c1ccccc1 (stereo not drawn) | – | > 100 | – | > 100 | – | > 100 | – | > 100 | – | > 100 | – | > 100 | – | > 100 | – | > 100 | – | > 100 | – | > 100
[O-]c1c2c(nn1-c1ccccc1)c1ccccc1c[n+]2Cc1ccccc1 | – | > 100 | – | > 100 | – | > 100 | – | > 100 | – | > 100 | – | > 100 | – | > 100 | – | > 100 | – | > 100 | – | > 100
Cc1nc(Cl)nc(Cl)c1C | – | > 100 | – | > 100 | – | > 100 | – | > 100 | – | > 100 | – | > 100 | – | > 100 | – | > 100 | – | > 100 | – | > 100
CCOc1cccc(/C=N/NC(=O)c2ccc(Nc3ccnc(C(F)(F)F)c3)cc2)c1O | 1.28 | 40.6 | 0.515 | > 100 | 1.18 | 8.11 | 2.01 | > 100 | 2.08 | 22.5 | 2.29 | > 47.8 | 0.236 | > 100 | 16.9 | > 82.8 | 4.38 µM | > 73.5 | 2.01 | > 57.8
Cn1cc(C2=C(c3cccc4ccccc34)C(=O)NC2=O)c2ccccc21 | 8.26 | > 23.1 | 6.66 | > 25 | 5.1 | 11.9 | 9.45 | > 25 | 7.7 | > 25 | 9.45 | 24.2 | 7 | > 20.9 | 6.53 | 19.1 | 7.45 µM | > 25 | 8.35 | > 25
Cn1nccc1Nc1nccc(-c2cc3c(s2)C(C)(C)N(CCN2CCOCC2)C3=O)n1 | > 89.9 | > 100 | 16.9 | > 100 | 1.31 | 58 | 1.22 | > 100 | 20.2 | > 100 | 0.183 | > 100 | 23 | > 100 | 14.9 | > 100 | 0.277 µM | > 100 | 17 | > 86.2
O=C(CN1CCN(c2ncnc3ccccc23)CC1)Nc1ccc(Cl)cc1C(=O)c1ccccc1Cl | 1.11 | 6.07 | 3.12 | 10.8 | 0.5 | 2.7 | 0.662 | 7.54 | 1.15 | 6.26 | 0.289 | 2.52 | 0.263 | – | 0.258 | 1.55 | 0.394 µM | 9.4 | 3.5 | 36.6
C1=Cc2ccccc2Nc2ccccc21 | > 100 | > 100 | > 100 | > 100 | > 100 | > 100 | > 100 | > 100 | > 100 | > 100 | > 100 | > 100 | > 100 | > 100 | > 100 | > 100 | > 100 µM | > 100 | > 100 | > 100
COc1cc(/C=C2\[C@H]3c4c(c(OC)c(C)c(OC)c4OC)C[C@@H](C(=O)N2Cc2ccccc2)N3C(=O)OCC(C)C)c(OC)c(C)c1OC | – | > 100 | – | > 100 | – | > 100 | – | > 31.6 | – | 40.9 | – | > 100 | – | > 100 | – | > 100 | – | > 100 | – | > 100
COc1ccc2c(=O)c(C)c(-c3ccccc3)oc2c1CN(C)C | – | > 100 | – | > 100 | – | > 100 | – | > 100 | – | > 100 | – | > 100 | – | > 100 | – | > 100 | > 100 µM and 30.6 µM | > 100 | – | > 100
